The experiment addresses RbAp48 (Homo sapiens, UniProt Q09028). Nature of the experiment: Competitive fluorescence polarization (FP) assay using complex of peptide 1 and RbAp48. The following applies: competitive FP, RbAp48 15 nM, read-out: IC50. Also on record: Full length RbAp48 was cloned; His tag followed by 3C cleavage site (N, cleaved yes); made in house; host or cells: Sf9 insect cells. It counts as binding. The method, then:
The binding affinity of our library of synthetic cyclic peptides was evaluated by a competitive fluorescence polarization (FP) assay using a complex formed by peptide 1 and RbAp48. To reduce the length of the peptide it was truncated to the amino acids which seemed most critical according to the crystal structure (residues 676–689, pdb:4pbz). […] We chose to use a cyclization approach to regain affinity, that is, not to induce more interactions but through minimizing the entropic penalty upon binding by reducing the flexibility of the peptide. To this end two amino acids were chosen which are facing one another in the structure (see Figure 1 B/D/E). Two peptides were designed where glutamic acid was used in position 676 (4) or position 680 (5) and lysine in position 688 for both peptides (see Table 1). The macrocycles were formed by connecting the side chains via an amide bond (see Figure 1 D/E). Peptide synthesis was performed on Rink‐amide resin using the Fmoc‐strategy incorporating Fmoc‐L‐Glu(All)‐OH and Fmoc‐L‐Lys(Alloc)‐OH at the sites for cyclization. After completion of the linear synthesis the allyl protecting groups were removed using Pd^0 catalysis and the amide link was formed by using PyBOP. […] Therefore, a range of peptides was synthesized which were cyclized using the same amino acid positions but via a cysteine alkylation strategy (see Figure 1 D/E and Table 1). In this method the residues used for cyclization are replaced with cysteine and benzylic dibromides act as crosslinkers on the unprotected peptides. ^[11] Previous research has shown that such linkers can effectively stabilize cyclic peptides and yield high affinity ligands for protein–protein interaction inhibition. ^[12] Such a linker introduces a xylene group in close vicinity of the hydrophobic patch potentially reconstituting the lost key hydrophobic interactions. To explore a variety of macrocycle conformations we used either ortho‐, meta‐ or para‐substituted dibromides to exchange the linker in both 4 and 5 (see Figure 1 D/E and Table 1). ^[13]
Protein expression and purification
RbAp48 was expressed and purified by the Dortmund Protein Facility. Full length RbAp48 was cloned into a pOPIN vector ligating it to an N-terminal His tag followed by a 3C cleavage site. The protein was expressed from Sf9 cells for 48 h. Cells were harvested and lysed and the protein was purified by loading onto a HisTrap FF crude 5 ml column followed by on-column cleavage using Precission protease. The cleaved protein was then further purified using a HiLoad 26/60 Superdex 200 column.
Fluorescence polarization assay
Fluorescence polarization assays were performed in 384 wells plates in 80 µl volumes. The assay buffer contains 20 mM Tris-HCl, 150 mM NaCl, 0.01% Tween-20 at pH 7.5. The concentration of the fluorescently labelled peptides was 1 nM plates were incubated at room temperature for 30 min before they were read on a Tecan Spark plate reader (λex = 485 nm, λem = 535 nm).
For competitive assays the same conditions were used with a tracer concentration of 1 nM was used and a protein concentration of 15 nM .

The mark [1] stands for this setting: Table 1, tracer peptide 1 1 nM, 20 mM Tris-HCl, 150 mM NaCl, 0.01% Tween-20, pH 7.5, 30 min room temperature, lower limit set by 15 nM protein.
The mark [2] stands for this setting: Supplemental Table 2, tracer 1 nM, pH 7.5, 30 min room temperature.

Like-named read-outs stand apart in the source and are kept apart here. Starred links: 1 amine or outer side, 2 acyl side, 3 side chain; linkers in the order of their positions; H or OH if unused. Positions of bridges follow the written chain, without caps; N, C: chain ends. Residues, ends and D or L forms follow the SMILES beside them. Pyridine(2,6-diCH2) = c1cc(C[*:1])nc(C[*:2])c1; mXylylene = c1cc(C[*:1])cc(C[*:2])c1; oXylylene = c1ccc(C[*:2])c(C[*:1])c1; pXylylene = c1cc(C[*:2])ccc1C[*:1]

Sequence of RbAp48 (Q09028 whole entry, the tested form may be a part): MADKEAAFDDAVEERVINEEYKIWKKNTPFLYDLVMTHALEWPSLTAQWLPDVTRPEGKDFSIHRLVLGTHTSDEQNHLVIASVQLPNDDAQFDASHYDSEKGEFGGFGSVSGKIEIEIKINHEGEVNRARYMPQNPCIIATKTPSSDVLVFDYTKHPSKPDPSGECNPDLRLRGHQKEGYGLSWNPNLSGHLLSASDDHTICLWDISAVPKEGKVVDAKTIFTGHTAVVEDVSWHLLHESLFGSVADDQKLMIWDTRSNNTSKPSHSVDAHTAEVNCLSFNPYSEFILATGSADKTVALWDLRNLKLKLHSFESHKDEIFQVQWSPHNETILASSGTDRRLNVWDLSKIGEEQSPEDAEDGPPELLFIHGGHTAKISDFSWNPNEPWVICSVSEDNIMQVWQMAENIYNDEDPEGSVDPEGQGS

As for `CC(=O)N[C@H]1CCC(=O)NCCCC[C@@H](C(=O)N[C@@H](C)C(N)=O)NC(=O)[C@@H]2CCCN2C(=O)[C@H](CCCCN)NC(=O)[C@H](Cc2ccc(O)cc2)NC(=O)[C@@H]2CCCN2C(=O)[C@H](CCCNC(=N)N)NC(=O)[C@H](CCCNC(=N)N)NC(=O)[C@H](C)NC(=O)[C@H](C)NC(=O)[C@H](CCCNC(=N)N)NC(=O)[C@H](CCCCN)NC(=O)[C@H]([C@@H](C)O)NC1=O` [Peptide 4] (Ac-ETKRAARRPYKPKA-NH2; lactam 1-13), the IC50 under setting [1] worked out at 47.7 ± 12.5 nM.
Take `CC(=O)N[C@@H](CCC(=O)O)C(=O)N[C@H](C(=O)N[C@@H](CCCCN)C(=O)N[C@@H](CCCNC(=N)N)C(=O)N[C@H]1CCC(=O)NCCCC[C@@H](C(=O)N[C@@H](C)C(N)=O)NC(=O)[C@@H]2CCCN2C(=O)[C@H](CCCCN)NC(=O)[C@H](Cc2ccc(O)cc2)NC(=O)[C@@H]2CCCN2C(=O)[C@H](CCCNC(=N)N)NC(=O)[C@H](CCCNC(=N)N)NC(=O)[C@H](C)NC1=O)[C@@H](C)O` [Peptide 5] (Ac-ETKREARRPYKPKA-NH2; lactam 5-13): under setting [1], the concentration for half-maximal inhibition (IC50) came out at 126 ± 32.3 nM.
The same measure, in the same setting: for `CC(=O)N[C@H]1CSCc2ccccc2CSC[C@@H](C(=O)N[C@@H](C)C(N)=O)NC(=O)[C@@H]2CCCN2C(=O)[C@H](CCCCN)NC(=O)[C@H](Cc2ccc(O)cc2)NC(=O)[C@@H]2CCCN2C(=O)[C@H](CCCNC(=N)N)NC(=O)[C@H](CCCNC(=N)N)NC(=O)[C@H](C)NC(=O)[C@H](C)NC(=O)[C@H](CCCNC(=N)N)NC(=O)[C@H](CCCCN)NC(=O)[C@H]([C@@H](C)O)NC1=O` [Peptide 6] (Ac-CTKRAARRPYKPCA-NH2; linker 1-13 via oXylylene) the value was 77.4 ± 6.5 nM; for `CC(=O)N[C@H]1CSCc2cccc(c2)CSC[C@@H](C(=O)N[C@@H](C)C(N)=O)NC(=O)[C@@H]2CCCN2C(=O)[C@H](CCCCN)NC(=O)[C@H](Cc2ccc(O)cc2)NC(=O)[C@@H]2CCCN2C(=O)[C@H](CCCNC(=N)N)NC(=O)[C@H](CCCNC(=N)N)NC(=O)[C@H](C)NC(=O)[C@H](C)NC(=O)[C@H](CCCNC(=N)N)NC(=O)[C@H](CCCCN)NC(=O)[C@H]([C@@H](C)O)NC1=O` [Peptide 7] (Ac-CTKRAARRPYKPCA-NH2; linker 1-13 via mXylylene), 18.7 ± 4.1 nM.
For the molecule `CC(=O)N[C@H]1CSCc2cccc(n2)CSC[C@@H](C(=O)N[C@@H](C)C(N)=O)NC(=O)[C@@H]2CCCN2C(=O)[C@H](CCCCN)NC(=O)[C@H](Cc2ccc(O)cc2)NC(=O)[C@@H]2CCCN2C(=O)[C@H](CCCNC(=N)N)NC(=O)[C@H](CCCNC(=N)N)NC(=O)[C@H](C)NC(=O)[C@H](C)NC(=O)[C@H](CCCNC(=N)N)NC(=O)[C@H](CCCCN)NC(=O)[C@H]([C@@H](C)O)NC1=O` [Peptide 9] (Ac-CTKRAARRPYKPCA-NH2; linker 1-13 via Pyridine(2,6-diCH2)), under setting [1], the IC50 was 34.9 ± 14 nM.
On the same count and under the same terms, with `CC(=O)N[C@@H](CCC(=O)O)C(=O)N[C@H](C(=O)N[C@@H](CCCCN)C(=O)N[C@@H](CCCNC(=N)N)C(=O)N[C@H]1CSCc2ccccc2CSC[C@@H](C(=O)N[C@@H](C)C(N)=O)NC(=O)[C@@H]2CCCN2C(=O)[C@H](CCCCN)NC(=O)[C@H](Cc2ccc(O)cc2)NC(=O)[C@@H]2CCCN2C(=O)[C@H](CCCNC(=N)N)NC(=O)[C@H](CCCNC(=N)N)NC(=O)[C@H](C)NC1=O)[C@@H](C)O` [Peptide 10] (Ac-ETKRCARRPYKPCA-NH2; linker 5-13 via oXylylene) the figure was 322 ± 56.8 nM; with `CC(=O)N[C@@H](CCC(=O)O)C(=O)N[C@H](C(=O)N[C@@H](CCCCN)C(=O)N[C@@H](CCCNC(=N)N)C(=O)N[C@H]1CSCc2cccc(c2)CSC[C@@H](C(=O)N[C@@H](C)C(N)=O)NC(=O)[C@@H]2CCCN2C(=O)[C@H](CCCCN)NC(=O)[C@H](Cc2ccc(O)cc2)NC(=O)[C@@H]2CCCN2C(=O)[C@H](CCCNC(=N)N)NC(=O)[C@H](CCCNC(=N)N)NC(=O)[C@H](C)NC1=O)[C@@H](C)O` [Peptide 11] (Ac-ETKRCARRPYKPCA-NH2; linker 5-13 via mXylylene), 388 ± 69.8 nM; with `CC(=O)N[C@@H](CCC(=O)O)C(=O)N[C@H](C(=O)N[C@@H](CCCCN)C(=O)N[C@@H](CCCNC(=N)N)C(=O)N[C@H]1CSCc2ccc(cc2)CSC[C@@H](C(=O)N[C@@H](C)C(N)=O)NC(=O)[C@@H]2CCCN2C(=O)[C@H](CCCCN)NC(=O)[C@H](Cc2ccc(O)cc2)NC(=O)[C@@H]2CCCN2C(=O)[C@H](CCCNC(=N)N)NC(=O)[C@H](CCCNC(=N)N)NC(=O)[C@H](C)NC1=O)[C@@H](C)O` [Peptide 12] (Ac-ETKRCARRPYKPCA-NH2; linker 5-13 via pXylylene), 2340 ± 363 nM.
Take `CC(=O)N[C@@H](CCC(=O)O)C(=O)N[C@H](C(=O)N[C@@H](CCCCN)C(=O)N[C@@H](CCCNC(=N)N)C(=O)N[C@H]1CSCc2cccc(n2)CSC[C@@H](C(=O)N[C@@H](C)C(N)=O)NC(=O)[C@@H]2CCCN2C(=O)[C@H](CCCCN)NC(=O)[C@H](Cc2ccc(O)cc2)NC(=O)[C@@H]2CCCN2C(=O)[C@H](CCCNC(=N)N)NC(=O)[C@H](CCCNC(=N)N)NC(=O)[C@H](C)NC1=O)[C@@H](C)O` [Peptide 13] (Ac-ETKRCARRPYKPCA-NH2; linker 5-13 via Pyridine(2,6-diCH2)): the IC50 under setting [1] is 147 ± 10.7 nM.
As to `CC[C@H](C)[C@H](NC(=O)[C@@H]1CCCN1C(=O)[C@H](CC(C)C)NC(=O)[C@H](Cc1ccc(O)cc1)NC(=O)[C@@H]1CCCN1C(=O)[C@H](Cc1c[nH]cn1)NC(=O)[C@H](CCCNC(=N)N)NC(=O)[C@H](C)NC(=O)[C@H](C)NC(=O)[C@H](Cc1c[nH]cn1)NC(=O)[C@H](Cc1c[nH]c2ccccc12)NC(=O)[C@@H]1CCCN1C(=O)[C@H](CCCNC(=N)N)NC(=O)[C@H](CC(C)C)NC(C)=O)C(=O)N[C@@H](CC(N)=O)C(N)=O` [Peptide 14] (Ac-LRPWHAARHPYLPIN-NH2), under setting [2], the IC50 was greater than 10000 nM.
For the molecule `CC[C@H](C)[C@H](NC(=O)[C@@H]1CCCN1C(=O)[C@H](CC(C)C)NC(=O)[C@H](Cc1ccc(O)cc1)NC(=O)[C@@H]1CCCN1C(=O)[C@H](Cc1c[nH]cn1)NC(=O)[C@H](CCCNC(=N)N)NC(=O)[C@H](C)NC(=O)[C@H](C)NC(=O)[C@H](Cc1c[nH]cn1)NC(=O)[C@H](Cc1c[nH]c2ccccc12)NC(=O)[C@@H]1CCCN1C(=O)[C@H](CCCNC(=N)N)NC(C)=O)C(=O)N[C@@H](CC(N)=O)C(N)=O` [Peptide 15] (Ac-RPWHAARHPYLPIN-NH2), under setting [2], the IC50 was greater than 10000 nM.
For the molecule `CC(=O)N[C@H]1CSCc2cccc(c2)CSC[C@@H](C(=O)N[C@@H](CC(N)=O)C(N)=O)NC(=O)[C@@H]2CCCN2C(=O)[C@H](CC(C)C)NC(=O)[C@H](Cc2ccc(O)cc2)NC(=O)[C@@H]2CCCN2C(=O)[C@H](Cc2c[nH]cn2)NC(=O)[C@H](CCCNC(=N)N)NC(=O)[C@H](C)NC(=O)[C@H](C)NC(=O)[C@H](Cc2c[nH]cn2)NC(=O)[C@H](Cc2c[nH]c3ccccc23)NC(=O)[C@@H]2CCCN2C(=O)[C@H](CCCNC(=N)N)NC1=O` [Peptide 16] (Ac-CRPWHAARHPYLPCN-NH2; linker 1-14 via mXylylene), the IC50 under setting [2] is greater than 10000 nM.
`CC(=O)N[C@H]1CSCc2ccc(cc2)CSC[C@@H](C(=O)N[C@@H](CC(N)=O)C(N)=O)NC(=O)[C@@H]2CCCN2C(=O)[C@H](CC(C)C)NC(=O)[C@H](Cc2ccc(O)cc2)NC(=O)[C@@H]2CCCN2C(=O)[C@H](Cc2c[nH]cn2)NC(=O)[C@H](CCCNC(=N)N)NC(=O)[C@H](C)NC(=O)[C@H](C)NC(=O)[C@H](Cc2c[nH]cn2)NC(=O)[C@H](Cc2c[nH]c3ccccc23)NC(=O)[C@@H]2CCCN2C(=O)[C@H](CCCNC(=N)N)NC1=O` [Peptide 17] (Ac-CRPWHAARHPYLPCN-NH2; linker 1-14 via pXylylene): the half-inhibitory concentration (IC50) under setting [2] is greater than 10000 nM.

(Values after publication PMC7894522, “Structure Based Design of Bicyclic Peptide Inhibitors of RbAp48” (Angewandte Chemie (International Ed. in English), 2020).)
